In patent publication EP4806899A1, “FUSED RING DERIVATIVE, PREPARATION METHOD THEREFOR AND USE THEREOF IN MEDICINE” (Shanghai Qilu Pharmaceutical Research and Development …, priority 2023, dated 2025):
Several values for one entry are separate records, joined by “and”; a condition that tells them apart may be missing. Equal entries are not always repeated.

How the values were obtained:
[1] = target: T1, human CYP11B1 enzyme (Homo sapiens, UniProt P15538); experiment: Enzyme inhibition activity assay in G402 cells stably expressing human CYP11B1 (cortisol production from 11-DC, LC/MS); type: cell-based; settings: 1 µM 11-DC, 16 hours, cortisol detected
T1 construct: the ORF of human CYP11B1 or CYP11B2 were transfected into G402 cells; expressed in transfected cells
T1 sequence (P15538 25-503): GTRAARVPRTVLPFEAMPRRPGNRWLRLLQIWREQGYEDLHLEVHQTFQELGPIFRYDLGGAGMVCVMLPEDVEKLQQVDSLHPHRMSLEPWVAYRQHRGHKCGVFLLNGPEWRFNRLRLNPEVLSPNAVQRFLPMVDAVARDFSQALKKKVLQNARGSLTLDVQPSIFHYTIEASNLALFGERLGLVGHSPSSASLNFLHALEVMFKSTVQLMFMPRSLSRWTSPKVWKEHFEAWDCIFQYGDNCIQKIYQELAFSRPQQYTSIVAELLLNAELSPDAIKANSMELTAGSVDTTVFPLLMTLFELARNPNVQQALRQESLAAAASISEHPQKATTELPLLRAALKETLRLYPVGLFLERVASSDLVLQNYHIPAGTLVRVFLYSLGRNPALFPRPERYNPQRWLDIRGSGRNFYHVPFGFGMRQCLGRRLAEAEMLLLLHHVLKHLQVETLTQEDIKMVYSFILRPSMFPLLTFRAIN
Description: (§1) G402 cells (ATCC, CRL 1440) are epithelioid cells isolated from the kidney of a patient with renal failure and are a type of leiomyoblastoma. For the screening of highly specific CYP11B2 inhibitors, we specifically used G402 cell lines stably expressing human CYP11B2 enzyme or human CYP11B1 enzyme for experimental development.
(§2) Construction of Stably Transfected Cell Lines: Expression plasmids containing suitable promoters, suitable drug resistance markers, and the ORF of human CYP11B1 or CYP11B2 were transfected into G402 cells using standard techniques. The cells were then screened using the specific puromycin resistance marker. Monoclonal cells stably expressing human CYP11B2 were selected for expansion, and 11-deoxycorticosterone (11-DOC) was used as the specific substrate to evaluate enzyme activity based on aldosterone production. Monoclonal cells stably expressing human CYP11B1 were selected for expansion, and 11-deoxycortisol (11-DC) was used as the specific substrate, with cortisol production as the detection target for specific enzyme activity evaluation. The G402 cell lines stably expressing CYP11B1/CYP11B2 were cultured at 37 °C, 5% CO2, 95% air in complete medium (McCoy's 5A + 10% FBS + 1% PS + 0.5 µg/mL puromycin).
(§3) Enzyme Inhibition Activity Assay: CYP11B1 G402/CYP11B2 G402 cells were spread out flatly in cell culture plates. After 24 hours, the medium was changed to an enzyme testing system (DMEM/F12 + 2.5% charcoal-stripped FCS). Small molecule inhibitors at various concentrations were added. After 1 hour, appropriate concentrations of specific substrates (1 µM 11-DOC / 1 µM 11-DC) were added and co-incubated with the cells for 16 hours. Cells were then collected, and specific products were detected using LC/MS methods with an AB SCIEX TRIPLE QUAD 5500+, CTO-40S instrument (CYP11B2 enzyme detecting aldosterone; CYP11B1 enzyme detecting cortisol).
(§4) The IC50 values of the compounds were determined based on the G402 testing system. The dose-dependent inhibition of enzyme activity was calculated by plotting the added inhibitor concentration (x-axis) against the percentage of product inhibitory activity relative to the control group (y-axis) based on product formation at various compound concentrations. The following data were then fitted using the least squares method with XLfit 5.5.0 for a four-parameter logistic curve fit: [formula] • Y-axis: Percentage of product inhibitory activity relative to the control group; • logIC50: IC50 was determined using XLFit.
(§5) The maximum enzyme activity corresponds to the amount of control product steroid/aldosterone in the absence of inhibitor, set as 100%. The minimum enzyme activity corresponds to the amount of reference control product steroid/aldosterone in the presence of inhibitor. Table 3 Inhibitory Activity of the Compounds of the Present Disclosure on CYP11B2 and CYP11B1

[2] = in vivo; settings: male, Sprague-Dawley, rat, plasma, po, 10 mg/kg
Protocol: • 1) 50 µL of plasma sample was precipitated by adding 200 µL of acetonitrile, vortex mixed, and centrifuged for 15 minutes. • 2) The processed supernatant was diluted with water and analyzed by LC/MS/MS to determine the concentration of the test compound.
Pharmacokinetic parameters were calculated using WinNonlin 8.3. […] Cmax represents the maximum plasma concentration, T1/2 represents the terminal elimination half-life, MRTInf represents the mean residence time, and AUC represents the area under the plasma concentration-time curve.

[3] = tested on: plasma hormone levels; experiment: Pharmacodynamic determination in monkeys: plasma aldosterone and cortisol after ACTH stimulation; type: in vivo, cynomolgus monkeys; settings: P.O.
Protocol: Cynomolgus monkeys were used as test animals to evaluate the pharmacodynamics of multiple compounds of the present disclosure on plasma hormone levels following gavage administration (P.O.) at various doses such as 0.1 mpk (and others, e.g., 0.03 mpk, 0.1 mpk, and 0.3 mpk).
Male cynomolgus monkeys, Suzhou Xishan Zhongke Laboratory Animal Co., Ltd. Animal production license number: SCXK (Su) 2023-0001, animal use license number: SYXK (Su) 2020-0017.
Male cynomolgus monkeys were performed gavage administration (P.O.) at doses set as: 0 mpk (vehicle group, i.e., Veh group), 0.03 mpk, 0.1 mpk, and 0.3 mpk. In each group, 15 µg/kg ACTH was injected intramuscularly 1 hour after dosing. Continuous venous blood samples were collected from each group at 1 hour before administration and at multiple time points after administration. Blood samples were collected, and plasma aldosterone and its precursors, as well as plasma corticosterone and its precursors, at multiple time points were analyzed using LC/MS methods.
Venous blood samples were collected at 1-2 hours before gavage administration and at multiple time points after intramuscular injection of ACTH (adrenocorticotropic hormone). The samples were placed in EDTA-K2 tubes, centrifuged at 4 °C, 2600 g for 10 minutes to separate plasma, which was then stored at -80 °C.
• HPLC: Waters ACQUITY UPLC I-Class PLUS; • Mass spectrometry conditions: Triple Quad™ 7500 (Serial No. FA224362212) mass spectrometer; • Chromatographic column: phenomenex kinetex 2.6µm C8 100A 50 × 4.60 mm; • Mobile phase: mobile phase A was 0.5 mM ammonium fluoride solution containing 0.1% formic acid; mobile phase B was MeOH.
The data in Figs. 1, 2, 3, 4, and 5 are analyzed based on PD changes at 30 minutes after ACTH stimulation. The percentage of PD relative to the control group (Veh group) at 30 minutes after ACTH stimulation serves as the main basis for pharmacodynamic evaluation, calculated according to the following formula: [formula] where PD refers to aldosterone or cortisol. Table 8 Pharmacodynamic Evaluation of Example Compound C44 in Monkeys

[4] = target: T2, human CYP11B2 enzyme (Homo sapiens, UniProt P19099); experiment: Enzyme inhibition activity assay in G402 cells stably expressing human CYP11B2 (aldosterone production from 11-DOC, LC/MS); type: cell-based; settings: 1 µM 11-DOC, 16 hours, aldosterone detected
T2 construct: the ORF of human CYP11B1 or CYP11B2 were transfected into G402 cells; expressed in transfected cells
T2 sequence (P19099 25-503): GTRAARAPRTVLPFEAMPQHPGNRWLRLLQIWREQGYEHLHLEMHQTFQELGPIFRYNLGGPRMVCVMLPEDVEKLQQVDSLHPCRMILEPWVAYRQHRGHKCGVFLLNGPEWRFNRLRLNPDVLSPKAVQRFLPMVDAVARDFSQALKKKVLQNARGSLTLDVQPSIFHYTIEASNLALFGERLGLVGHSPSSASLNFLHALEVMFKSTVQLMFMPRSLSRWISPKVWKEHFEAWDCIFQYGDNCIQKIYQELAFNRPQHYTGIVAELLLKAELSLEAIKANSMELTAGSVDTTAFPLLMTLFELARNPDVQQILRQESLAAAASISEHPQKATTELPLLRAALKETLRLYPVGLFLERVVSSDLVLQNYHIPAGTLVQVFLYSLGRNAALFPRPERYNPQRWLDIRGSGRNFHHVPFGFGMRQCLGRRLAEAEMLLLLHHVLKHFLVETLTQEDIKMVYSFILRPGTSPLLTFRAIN
Description: as §1, §2, §3, §4, §5

[5] = Pharmacokinetic determination in mice after gavage administration (P.O.); type: in vivo; settings: male, CD-1, mouse, po, 10 mg/kg, plasma; for AUC(0-t): read-out: AUC0-24
Protocol: Mice and rats were used as test animals to study the pharmacokinetic behavior of the compounds of the present disclosure in plasma following gavage administration (P.O.). Plasma samples were collected at specific time points, compound concentrations in plasma were detected by LC-MS/MS, and pharmacokinetic parameters were calculated to evaluate the pharmacokinetics.
• Mice, CD-1, male, Zhejiang Vital River Laboratory Animal Technology Co., Ltd. • Rats, Sprague-Dawley, male, Zhejiang Vital River Laboratory Animal Technology Co., Ltd., Shanghai Jihui Experimental Animal Breeding Co., Ltd.
After administration to mice and rats, venous blood samples of 0.03 mL and 0.2 mL, respectively, were collected at 0.0833 (IV), 0.25, 0.5, 1, 2, 4, 8, and 24 hours and placed in EDTA-K2 test tubes. Plasma was separated by centrifugation at 4 °C, 4000 g for 5 minutes and stored at -80 °C.
• 1) 10 µL of plasma sample was precipitated by adding 200 µL of acetonitrile, vortex mixed, and centrifuged for 15 minutes. • 2) The processed supernatant was diluted with water and analyzed by LC/MS/MS to determine the concentration of the test compound.
Pharmacokinetic parameters were calculated using WinNonlin 8.3. The pharmacokinetic parameters for mice P.O. are shown in Table 4, and for rats P.O. in Table 5. Cmax represents the maximum plasma concentration, T1/2 represents the terminal elimination half-life, MRTInf represents the mean residence time, and AUC represents the area under the plasma concentration-time curve. Table 4 Pharmacokinetic Parameters of the Compounds of the Present Disclosure in Mice

[6] = 0.03 mpk, 30min after ACTH stimulation, plasma
[7] = 0.1 mpk, 30min after ACTH stimulation, plasma
[8] = 0.3 mpk, 30min after ACTH stimulation, plasma

Structure (SMILES) | IC50 [1] | AUC(0-t) [2] [µM·h] | Cmax [2] [µM] | MRT inf [2] [h] | half-life [2] [h] | Aldosterone ([3]; 0.03 mpk, 0h, plasma) [ng/mL] | Aldosterone [3, 6] [ng/mL] | Aldosterone ([3]; 0.1 mpk, 0h, plasma) [ng/mL] | Aldosterone [3, 7] [ng/mL] | Aldosterone ([3]; 0.3 mpk, 0h, plasma) [ng/mL] | Aldosterone [3, 8] [ng/mL] | IC50 [4] | Cmax [5] [µM] | MRT inf [5] [h] | half-life [5] [h] | AUC(0-t) [5] [µM·h] | Cortisol ([3]; 0.03 mpk, 0h, plasma) [ng/mL] | Cortisol [3, 6] [ng/mL] | Cortisol ([3]; 0.1 mpk, 0h, plasma) [ng/mL] | Cortisol [3, 7] [ng/mL] | further results
CCC(=O)N[C@@H]1CCCc2c(-c3cc(C)c4c(ccc(=O)n4C)c3)cncc21 [Compound C43] | 7.22 µM | 345 | 47.9 | 6.24 | 4.77 | 0.16 | 0.26 | 0.16 | 0.15 | 0.20 | 0.14 | 0.0167 µM |  |  |  |  |  |  |  |  | Cortisol ([3]; 0.03 mpk, 0h, plasma (Table 11)): 268.3 ng/mL; Cortisol ([3]; 0.03 mpk, 30min after ACTH stimulation, plasma (Table 11)): 358.7 ng/mL; Cortisol ([3]; 0.1 mpk, 0h, plasma (Table 11)): 282.0 ng/mL; Cortisol ([3]; 0.1 mpk, 30min after ACTH stimulation, plasma (Table 11)): 386.0 ng/mL; Cortisol ([3]; 0.3 mpk, 0h, plasma (Table 11)): 276.0 ng/mL; Cortisol ([3]; 0.3 mpk, 30min after ACTH stimulation, plasma (Table 11)): 346.7 ng/mL
CCC(=O)N[C@@H]1CCCc2c(-c3cc(F)c4c(c3)COC(=O)N4C)cncc21 [Compound C44] |  |  |  |  |  | 0.07 | 0.28 | 0.24 | 0.20 | 0.07 | 0.07 | 0.187 µM | 53.1 | 4.78 | 2.28 | 421 | 279.5 | 384.0 | 455.0 | 538.5 | Cortisol ([3]; 0.3 mpk, 0h, plasma): 265.5 ng/mL; Cortisol [3, 8]: 396.0 ng/mL
CCC(=O)N[C@@H]1CCOc2c(-c3ccc4c(ccc(=O)n4C)c3)cncc21 [Compound A09] | 3.38 µM and 18.8 µM | 522 | 52.1 | 8.19 | 5.91 | 0.20 | 0.34 | 0.24 | 012 | 0.08 | 0.07 | 0.0082 µM and 0.0138 µM |  |  |  |  | 214.0 | 285.3 | 256.7 | 345.0 | Cortisol ([3]; 0.3 mpk, 0h, plasma): 286.7 ng/mL; Cortisol [3, 8]: 388.3 ng/mL
CCC(=O)N[C@@H]1CCCc2c(-c3cc(F)c4c(ccc(=O)n4C)c3)cncc21 [Compound C41] | 4.9 µM |  |  |  |  |  |  |  |  |  |  | 0.0111 µM | 25 | 5.07 | 2.83 | 209 |  |  |  |  | 
CCC(=O)N[C@@H]1CCCc2c(-c3ccc4c(c3)COC(=O)N4C)cncc21 [Compound C07] | 1.15 µM |  |  |  |  |  |  |  |  |  |  | 0.0132 µM | 30.2 | 4.36 | 2.54 | 223 |  |  |  |  | 
